Measured values as given in the supplement of paper PMC11208160.

Test: recombinant barcode read abundance after kanamycin selection (control-corrected) (log10(CPM+1)); higher = more efficient recombination; sequences stand for … in AGTGCAGAGAAAATCGGCCAGTTTTCTCTGCCTGCAGTCCGCATGCCGT…AGATTTATGCAGCGGACTGCCTTTCTCCCAAAGTGATAAACCGGACAGTATCATGGACCGGTTTTCCCGGTAATCCGTATTTGCAAGGTTGGTTTCACT; site = the 11-nt target
In short: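 Each value is log10(CPM+1). It describes recombination efficiency, taken as averaged, control-corrected counts per million of barcodes at recombinant junctions. The pooled E. coli library paired targets with IS621 bridge RNA target-binding loops, was co-electroporated with a donor plasmid, and was plated twice on chloramphenicol/ampicillin LB agar (control) and twice on chloramphenicol/ampicillin/kanamycin containing 0.1 mM IPTG.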
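Further: IS621 recombinase and bridge RNA in Escherichia coli cells.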

| Sequence | recombinant barcode read abundance (log10) |
| --- | --- |
| GAGTGGCCTTGGGTTCTAACCTGTTGCGT (site GAGTGGCCTAG) | 0.227 |
| GAGTGGCCTTGGGTTCTAACCTGTTGCGT (site GAGTGGCCTAT) | 1.32 |
| GAGTTCCCTTGGGTTCTAACCTGTTGCCC (site ATTACTTCTAA) | 0.0963 |
| GAGTTCCCTTGGGTTCTAACCTGTTGCCC (site GAGTTCCCTGG) | 1.54 |
| GAGTTTCCTTGGGTTCTAACCTGTTGCGT (site GAGTTACCTAC) | 0.142 |
| GAGTTTCCTTGGGTTCTAACCTGTTGCGT (site GAGTTCCCTAC) | 0.278 |
| GAGTTTCCTTGGGTTCTAACCTGTTGCGT (site GAGTTGCCTAC) | 0.0725 |
| GAGTTTCCTTGGGTTCTAACCTGTTGCGT (site GAGTTTCCTAC) | 0.791 |
| GATACAGCTTGGGTTCTAACCTGTTGCCT (site GAAACAGCTAG) | 0.0665 |
| GATACAGCTTGGGTTCTAACCTGTTGCCT (site GACACAGCTAG) | 0.444 |
| GATACAGCTTGGGTTCTAACCTGTTGCCT (site GAGACAGCTAG) | 0.155 |
| GATACAGCTTGGGTTCTAACCTGTTGCCT (site GATACAGCTAG) | 1.16 |
| GATACGACTTGGGTTCTAACCTGTTGCCT (site GATACGACTAG) | 1.14 |
| GATACGACTTGGGTTCTAACCTGTTGCCT (site GATACGCCTAG) | 0.748 |
| GATACGACTTGGGTTCTAACCTGTTGCCT (site GATACGGCTAG) | 0.0662 |
| GATACGACTTGGGTTCTAACCTGTTGCCT (site GATACGTCTAG) | 0.00976 |
| GATACTACTTGGGTTCTAACCTGTTGCAG (site GATACTACTCT) | 0.17 |
| GATACTACTTGGGTTCTAACCTGTTGCAG (site GATGCTACTCT) | 0.11 |
| GATAGACCTTGGGTTCTAACCTGTTGCCT (site CATAGACCTAG) | 0.126 |
| GATAGACCTTGGGTTCTAACCTGTTGCCT (site GATAGACCTAG) | 1.57 |
| GATAGCTCTTGGGTTCTAACCTGTTGCCT (site AATAGCTCTAG) | 0.332 |
| GATAGCTCTTGGGTTCTAACCTGTTGCCT (site CATAGCTCTAG) | 0.0838 |

| Sequence | recombinant barcode read abundance (log10) |
| --- | --- |
| GATAGCTCTTGGGTTCTAACCTGTTGCCT (site GATAGCTCTAG) | 0.998 |
| GATAGCTCTTGGGTTCTAACCTGTTGCCT (site TATAGCTCTAG) | 0.509 |
| GATAGGGCTTGGGTTCTAACCTGTTGCCT (site GATAGGGCTAG) | 1.09 |
| GATAGGGCTTGGGTTCTAACCTGTTGCCT (site TTATACACTGA) | 0.135 |
| GATCAGCCTTGGGTTCTAACCTGTTGCCT (site GATCAGCCTAG) | 0.445 |
| GATCAGCCTTGGGTTCTAACCTGTTGCCT (site GATCTGCCTAG) | 0.063 |
| GATCCTACTTGGGTTCTAACCTGTTGCCA (site GATCCTACTTG) | 0.315 |
| GATCCTACTTGGGTTCTAACCTGTTGCCA (site GATGCTACTTG) | 0.0449 |
| GATCGAACTTGGGTTCTAACCTGTTGCCT (site AATCGAACTAG) | 0.15 |
| GATCGAACTTGGGTTCTAACCTGTTGCCT (site GATCGAACTAG) | 0.204 |
| GATCGAGCTTGGGTTCTAACCTGTTGCAG (site GATCGAGCTCT) | 1.42 |
| GATCGAGCTTGGGTTCTAACCTGTTGCAG (site TGGACGACTAA) | 0.178 |
| GATCGAGCTTGGGTTCTAACCTGTTGCCT (site GATCGAGCTAG) | 1.12 |
| GATCGAGCTTGGGTTCTAACCTGTTGCCT (site GATCGCGCTAG) | 0 |
| GATCGCGCTTGGGTTCTAACCTGTTGCCT (site GATCGAGCTAG) | 0.133 |
| GATCGCGCTTGGGTTCTAACCTGTTGCCT (site GATCGCGCTAG) | 0.231 |
| GATCTAGCTTGGGTTCTAACCTGTTGCAT (site CATATAGCTAT) | 0.0793 |
| GATCTAGCTTGGGTTCTAACCTGTTGCAT (site GATCTAGCTAT) | 0.574 |
| GATGAGTCTTGGGTTCTAACCTGTTGCTT (site GATGAGTCTAA) | 1.8 |
| GATGAGTCTTGGGTTCTAACCTGTTGCTT (site GATGAGTCTAG) | 1.34 |
| GATGATACTTGGGTTCTAACCTGTTGCGT (site GATGATACTAC) | 2.51 |
| GATGATACTTGGGTTCTAACCTGTTGCGT (site GTTTATACTAC) | 0.0738 |

| Sequence | recombinant barcode read abundance (log10) |
| --- | --- |
| GATGCCACTTGGGTTCTAACCTGTTGCCT (site GATCCCACTAG) | 0.182 |
| GATGCCACTTGGGTTCTAACCTGTTGCCT (site GATGCCACTAG) | 1.53 |
| GATGGTACTTGGGTTCTAACCTGTTGCAT (site ACGCACTCTCG) | 0.0471 |
| GATGGTACTTGGGTTCTAACCTGTTGCAT (site GATGGTACTAT) | 1.46 |
| GATGTATCTTGGGTTCTAACCTGTTGCCT (site GAGGTAGCTAG) | 0.0384 |
| GATGTATCTTGGGTTCTAACCTGTTGCCT (site GATGTATCTAG) | 1.09 |
| GATTATTCTTGGGTTCTAACCTGTTGCCT (site GAATATTCTAG) | 0.0621 |
| GATTATTCTTGGGTTCTAACCTGTTGCCT (site GACTATTCTAG) | 0.0521 |
| GATTATTCTTGGGTTCTAACCTGTTGCCT (site GAGTATTCTAG) | 0.138 |
| GATTATTCTTGGGTTCTAACCTGTTGCCT (site GATTATTCTAG) | 0 |
| GATTCGACTTGGGTTCTAACCTGTTGCGT (site CTGGACCCTCG) | 0.0133 |
| GATTCGACTTGGGTTCTAACCTGTTGCGT (site GATTCGACTAC) | 1.02 |
| GATTCTCCTTGGGTTCTAACCTGTTGCAT (site GATTCTCCTAA) | 0.246 |
| GATTCTCCTTGGGTTCTAACCTGTTGCAT (site GATTCTCCTAC) | 0.143 |
| GATTCTCCTTGGGTTCTAACCTGTTGCAT (site GATTCTCCTAG) | 0.0815 |
| GATTCTCCTTGGGTTCTAACCTGTTGCAT (site GATTCTCCTAT) | 0.197 |
| GATTCTTCTTGGGTTCTAACCTGTTGCCT (site GATTCTTCTAG) | 0.1 |
| GATTCTTCTTGGGTTCTAACCTGTTGCCT (site GCTTCTTCTAG) | 0.024 |
| GATTCTTCTTGGGTTCTAACCTGTTGCCT (site GGTTCTTCTAG) | 0.232 |
| GATTCTTCTTGGGTTCTAACCTGTTGCCT (site GTTTCTTCTAG) | 0 |
| GATTGGACTTGGGTTCTAACCTGTTGCTT (site AATTGGACTAA) | 0.38 |
| GATTGGACTTGGGTTCTAACCTGTTGCTT (site CATTGGACTAA) | 0.421 |
